This test concerns P388 leukemia ip, CD2F1 mice, survival T/C. The test can be described thus: NCI In Vivo Anticancer Drug Screen. Data for tumor model P388 Leukemia (intraperitoneal) in CD2F1 (CDF1) mice. To be noted: endpoint: median survival time, higher = longer survival. The essentials:
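Mice carrying the transplanted tumor received test compound or vehicle. Survival was recorded in each group, and the value is the treated-group measurement divided by that of the vehicle-treated control group.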

Setting [1] is: dose: 50.0 mg/kg/injection, schedule: Q01DX005 (ip), vehicle: Klucel (hydroxypropylcellulose) (HPC).
Where [2] appears, read: dose: 12.5 mg/kg/injection, schedule: Q01DX005 (ip), vehicle: Klucel (hydroxypropylcellulose) (HPC).
[3] abbreviates: dose: 25.0 mg/kg/injection, schedule: Q01DX005 (ip), vehicle: Klucel (hydroxypropylcellulose) (HPC).
Setting [4] is: dose: 60.0 mg/kg/injection, schedule: Q01DX005 (ip), vehicle: saline with Tween-80.
[5] abbreviates: dose: 120.0 mg/kg/injection, schedule: Q01DX005 (ip), vehicle: saline with Tween-80.
The mark [6] stands for this setting: dose: 100.0 mg/kg/injection, schedule: Q04DX003 (ip), vehicle: saline with Tween-80.
Where [7] appears, read: dose: 200.0 mg/kg/injection, schedule: Q04DX003 (ip), vehicle: saline with Tween-80.
[8] abbreviates: dose: 6.25 mg/kg/injection, schedule: Q01DX005 (ip), vehicle: saline with Tween-80.
[9] abbreviates: dose: 12.5 mg/kg/injection, schedule: Q01DX005 (ip), vehicle: saline with Tween-80.
Setting [10] is: dose: 240.0 mg/kg/injection, schedule: Q01DX005 (ip), vehicle: saline with Tween-80.
Setting [11] is: dose: 50.0 mg/kg/injection, schedule: Q01DX005 (ip), vehicle: saline with Tween-80.
The mark [12] stands for this setting: dose: 100.0 mg/kg/injection, schedule: Q01DX005 (ip), vehicle: saline with Tween-80.
[13] abbreviates: dose: 200.0 mg/kg/injection, schedule: Q01DX005 (ip), vehicle: saline with Tween-80.
Where [14] appears, read: dose: 60.0 mg/kg/injection, schedule: Q01DX005 (ip), vehicle: saline.

The structures appear in SMILES notation. “And” between values parts separate entries of the source, which are not always exact repeats. Identical values can stand only once. Inconclusive results and toxic doses are left out.

Regarding `O=C(NC(Cc1cn(Cc2ccccc2)cn1)C(=O)O)OCC1c2ccccc2-c2ccccc21` (configuration not stated), the T/C was 104 % of control under setting [1]; 98 % of control (dose: 100.0 mg/kg/injection, schedule: Q01DX005 (ip), vehicle: Klucel (hydroxypropylcellulose) (HPC)); 99 % of control (dose: 200.0 mg/kg/injection, schedule: Q01DX005 (ip), vehicle: Klucel (hydroxypropylcellulose) (HPC)).

As to `Cc1cc(C)nc(N/N=C\c2c(Cl)cccc2Cl)n1`, the T/C reads like this: (dose: 50.0 mg/kg/injection, schedule: Q04DX003 (ip), vehicle: Klucel (hydroxypropylcellulose) (HPC)) 100 % of control; (dose: 100.0 mg/kg/injection, schedule: Q04DX003 (ip), vehicle: Klucel (hydroxypropylcellulose) (HPC)) 98 % of control; (dose: 200.0 mg/kg/injection, schedule: Q04DX003 (ip), vehicle: Klucel (hydroxypropylcellulose) (HPC)) 94 % of control.

In the case of `COc1ccc2ncc(COC(=O)NC3CCCCC3)c(COC(=O)NC3CCCCC3)c2c1`, the T/C is, setting by setting: under setting [2], 91 % of control; under setting [3], 94 % of control; under setting [1], 88 % of control.

On to `C=C1NC(=O)C(N)=C1C(C)=O`, for which the T/C under setting [4] was 100 % of control and the T/C under setting [5] was 104 % of control.

As to `COc1cccc2[se]c(C(=O)O)cc12`, the T/C (dose: 50.0 mg/kg/injection, schedule: Q01DX009 (ip), vehicle: saline) is 92 % of control and the T/C (dose: 100.0 mg/kg/injection, schedule: Q01DX009 (ip), vehicle: saline) is 89 % of control.

In the case of `CCOC(=O)C(SC(Cl)(S(=O)(=O)c1ccccc1)S(=O)(=O)c1ccccc1)C(=O)OCC`, the T/C reads like this: (dose: 25.0 mg/kg/injection, schedule: Q01DX009 (ip), vehicle: Klucel (hydroxypropylcellulose) (HPC)) 105 % of control and 109 % of control; (dose: 50.0 mg/kg/injection, schedule: Q01DX009 (ip), vehicle: Klucel (hydroxypropylcellulose) (HPC)) 116 % of control and 120 % of control and 121 % of control; (dose: 100.0 mg/kg/injection, schedule: Q01DX009 (ip), vehicle: Klucel (hydroxypropylcellulose) (HPC)) 115 % of control and 116 % of control and 124 % of control; (dose: 200.0 mg/kg/injection, schedule: Q01DX009 (ip), vehicle: Klucel (hydroxypropylcellulose) (HPC)) 110 % of control and 120 % of control and 121 % of control; (dose: 400.0 mg/kg/injection, schedule: Q01DX009 (ip), vehicle: Klucel (hydroxypropylcellulose) (HPC)) 109 % of control.

With `CC(=O)OCC(=O)[C@@]1(O)CC[C@H]2[C@@H]3C[C@H](C)C4=CC(=O)C=C[C@]4(C)[C@@]3(F)[C@@H](O)C[C@@]21C`, the T/C runs as follows: (dose: 50.0 mg/kg/injection, schedule: Q04DX003 (ip), vehicle: saline with Tween-80) 109 % of control; (dose: 100.0 mg/kg/injection, schedule: Q01DX009 (ip), vehicle: saline with Tween-80) 100 % of control; under setting [6], 118 % of control; (dose: 200.0 mg/kg/injection, schedule: Q01DX009 (ip), vehicle: saline with Tween-80) 90 % of control; under setting [7], 118 % of control.

For `CN(C)c1nc(OC2C(C3COC(C)(C)O3)OC3OC(C)(C)OC32)nc(N(C)C)n1` (configuration not stated), the T/C is 99 % of control under setting [6]; 100 % of control under setting [7]; 100 % of control (dose: 400.0 mg/kg/injection, schedule: Q04DX003 (ip), vehicle: saline with Tween-80).

As for `CC(C)CCC1=CC(=O)C(CCC(C)C)=CC1=O`, the T/C by setting is: (dose: 3.12 mg/kg/injection, schedule: Q01DX009 (ip), vehicle: saline with Tween-80) 104 % of control; (dose: 6.25 mg/kg/injection, schedule: Q01DX009 (ip), vehicle: saline with Tween-80) 104 % of control; (dose: 12.5 mg/kg/injection, schedule: Q01DX009 (ip), vehicle: saline with Tween-80) 106 % of control; (dose: 25.0 mg/kg/injection, schedule: Q01DX009 (ip), vehicle: saline with Tween-80) 101 % of control.

For the compound `CC(C)=CC[P+](CC[P+](CC=C(C)C)(c1ccccc1)c1ccccc1)(c1ccccc1)c1ccccc1`, the T/C reads like this: under setting [8], 98 % of control; under setting [9], 98 % of control.

For `CN(Cc1cnc2nc(N)nc(N)c2n1)c1ccc(C(=O)NC(CCC(=O)OCc2cc3c(cc2Cl)OCO3)C(=O)OCc2cc3c(cc2Cl)OCO3)cc1` (configuration not stated), the T/C runs as follows: (dose: 0.94 mg/kg/injection, schedule: Q01DX005 (ip), vehicle: saline with Tween-80) 166 % of control; (dose: 1.87 mg/kg/injection, schedule: Q01DX005 (ip), vehicle: saline with Tween-80) 184 % of control and 186 % of control; (dose: 7.5 mg/kg/injection, schedule: Q01DX005 (ip), vehicle: saline with Tween-80) 99 % of control and 118 % of control.

`CCOC(=O)c1cnc(Sc2ncccc2[N+](=O)[O-])nc1N`: the T/C (dose: 100.0 mg/kg/injection, schedule: Q04DX003 (ip), vehicle: saline) was 95 % of control; the T/C (dose: 200.0 mg/kg/injection, schedule: Q04DX003 (ip), vehicle: saline) is 98 % of control; the T/C (dose: 400.0 mg/kg/injection, schedule: Q04DX003 (ip), vehicle: saline) was 92 % of control.

Take `O=c1[nH]c2cc(Cl)ccc2n1C1CCN(CCCC(c2ccc(F)cc2)c2ccc(F)cc2)CC1`: the T/C was 106 % of control under setting [8]; 110 % of control under setting [9]; 110 % of control (dose: 25.0 mg/kg/injection, schedule: Q01DX005 (ip), vehicle: saline with Tween-80).

Consider `O=C(Nc1cccc(C(F)(F)F)c1)Oc1ccc(Cl)c2cccnc12`, for which the T/C is 99 % of control under setting [4], 98 % of control under setting [5] and 105 % of control under setting [10].

Regarding `O=C(NN(Cc1ccccc1)S(=O)(=O)c1ccccc1)c1ccccc1`, the T/C by setting is: under setting [11], 101 % of control; under setting [12], 107 % of control; under setting [13], 103 % of control.

For `O=C(O)C1C2OC3C(OC(=O)C31)C2Br` (configuration not stated), the T/C was 100 % of control under setting [11], 94 % of control under setting [12] and 103 % of control under setting [13].

As to `Cc1ncc(C(=O)O)c2c1OC(C)(C)OC2`, the T/C is 104 % of control under setting [11], 100 % of control under setting [12] and 98 % of control under setting [13].

As for `Cc1ccc(C)c(CN(CCO)CCO)c1`, the T/C was 109 % of control under setting [14] and 102 % of control (dose: 120.0 mg/kg/injection, schedule: Q01DX005 (ip), vehicle: saline).

On to `COC(=O)CCCCCCCCCCCCCCCCCCCCCCCCCCCCCCCCC(=O)OC`, for which the T/C reads like this: (dose: 25.0 mg/kg/injection, schedule: Q01DX001 (ip), vehicle: Klucel (hydroxypropylcellulose) (HPC)) 88 % of control; (dose: 50.0 mg/kg/injection, schedule: Q01DX001 (ip), vehicle: Klucel (hydroxypropylcellulose) (HPC)) 88 % of control; (dose: 100.0 mg/kg/injection, schedule: Q01DX001 (ip), vehicle: Klucel (hydroxypropylcellulose) (HPC)) 87 % of control.

On to `Cc1ncc(CO)c(C2NC(C(=O)O)CS2)c1O` (configuration not stated), for which the T/C is 98 % of control under setting [4], 98 % of control under setting [5] and 100 % of control under setting [10].

`C(=C(\CCc1ccccn1)c1ccccn1)/c1cccnc1`: the T/C was 100 % of control (dose: 100.0 mg/kg/injection, schedule: Q01DX001 (ip), vehicle: saline); 101 % of control (dose: 200.0 mg/kg/injection, schedule: Q01DX001 (ip), vehicle: saline); 104 % of control (dose: 400.0 mg/kg/injection, schedule: Q01DX001 (ip), vehicle: saline).

Consider `CCCCCCCCCCCCCCCCOP(=O)([O-])OCC[N+](C)(C)C`, for which the T/C by setting is: (dose: 15.0 mg/kg/injection, schedule: Q01DX005 (ip), vehicle: saline) 100 % of control; (dose: 30.0 mg/kg/injection, schedule: Q01DX005 (ip), vehicle: saline) 100 % of control; under setting [14], 102 % of control and 103 % of control.

In the case of `CC1(C)N=C(N)N=C(N)N1c1ccc(F)cc1`, the T/C was 110 % of control under setting [2] and 113 % of control under setting [3].

`COC1=CC(=O)C(CCC(C)=O)=CC1=O`: the T/C reads like this: (dose: 3.75 mg/kg/injection, schedule: Q01DX005 (ip), vehicle: Klucel (hydroxypropylcellulose) (HPC)) 99 % of control; (dose: 7.5 mg/kg/injection, schedule: Q01DX005 (ip), vehicle: Klucel (hydroxypropylcellulose) (HPC)) 98 % of control; (dose: 15.0 mg/kg/injection, schedule: Q01DX005 (ip), vehicle: Klucel (hydroxypropylcellulose) (HPC)) 94 % of control.
